In PMC3805709 (Nature chemical biology, 2013):

Columns and labels:
CLC-ec1 [1] = molecular target: CLC-ec1 (Escherichia coli, UniProt P37019, E148A); assay: biochemical
CLC-ec1 [2] = molecular target: CLC-ec1 (Escherichia coli, UniProt P37019); assay: biochemical
Sequence of CLC-ec1 (Escherichia coli, UniProt P37019) (P37019 whole entry): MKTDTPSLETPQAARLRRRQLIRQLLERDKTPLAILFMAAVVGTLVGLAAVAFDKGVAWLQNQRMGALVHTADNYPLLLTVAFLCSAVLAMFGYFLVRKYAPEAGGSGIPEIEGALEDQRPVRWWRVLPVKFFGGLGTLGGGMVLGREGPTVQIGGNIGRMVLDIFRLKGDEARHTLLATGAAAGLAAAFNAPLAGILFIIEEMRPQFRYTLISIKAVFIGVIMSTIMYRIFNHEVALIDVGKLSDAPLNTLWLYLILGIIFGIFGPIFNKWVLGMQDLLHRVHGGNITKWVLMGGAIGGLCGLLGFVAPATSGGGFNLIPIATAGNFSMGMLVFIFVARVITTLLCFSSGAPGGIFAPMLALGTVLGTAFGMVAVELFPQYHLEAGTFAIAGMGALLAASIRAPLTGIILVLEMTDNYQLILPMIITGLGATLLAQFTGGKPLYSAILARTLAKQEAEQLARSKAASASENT

Sequence of CLC-ec1 (Escherichia coli, UniProt P37019, E148A) (P37019 whole entry E148A): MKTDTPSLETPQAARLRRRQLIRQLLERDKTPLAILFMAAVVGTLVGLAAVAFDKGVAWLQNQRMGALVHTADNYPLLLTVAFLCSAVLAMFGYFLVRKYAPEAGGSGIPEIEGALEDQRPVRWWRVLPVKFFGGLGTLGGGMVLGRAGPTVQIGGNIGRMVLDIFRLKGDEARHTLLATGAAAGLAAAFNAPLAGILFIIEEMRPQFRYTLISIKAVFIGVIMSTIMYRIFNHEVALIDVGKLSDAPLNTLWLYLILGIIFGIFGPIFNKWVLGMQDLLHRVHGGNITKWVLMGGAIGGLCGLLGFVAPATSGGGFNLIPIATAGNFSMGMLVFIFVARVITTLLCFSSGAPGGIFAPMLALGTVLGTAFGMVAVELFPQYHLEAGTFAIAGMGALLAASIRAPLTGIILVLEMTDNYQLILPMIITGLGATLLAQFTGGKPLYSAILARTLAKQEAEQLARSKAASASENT

| Kd (CLC-ec1 [1]) [µM] | Kd (CLC-ec1 [2]) [µM] | SMILES |
| --- | --- | --- |
| 180 | 1000 | F [F^−] |
| – | 600 | Cl [Cl^−] |
